One series deals with normal mice. Briefly: Acute toxicity test in normal mice. The format is in vivo, mouse. The note with it: 14.4 mM, 19.18 ml/g subcutaneous, 8-week-old normal mice; FIG. 34. Here is the method: To confirm the excellent safety of HPGCD, acute toxicity was tested using normal mice. 14.4 mM HPBCD or HPGCD were injected in the amount of 19.18 ml/g into subcutaneous tissues of 8-week-old mice (n=10), and then survival rates were calculated.

Another series deals with LC3. In words: Immunoblot of LC3 expression in HLCs. The format is cell-based, human. The following applies: 1 mM HPCD, 4 days; FIG. 22. Here is the method:
(§1) Protein lysates were separated by SDS-PAGE and transferred to PVDF membrane. LC3-I and LCS3-II were detected by anti-LC3 antibody (Cell Signaling). The data are normalized to α-tubulin expression. The HLCs were solved in RIPA buffer and then insoluble p62 was collected as a pellet after the centrifuge of the samples.
(§2) HLCs were culture with 1 mM 2-hydroxypropylcyclodextrins (HPCDs) for 4 days, and ATP level, expression levels of LC3 and p62, and insoluble p62 granules were measured.
Background: Immunoblotting shows a protein as a band on a membrane.

Another series relates to cultured cells. The note with it: Non-Patent Document 5; cited from earlier work.
The test system of series [1] is NPC-derived HLCs. Briefly: Measurement of ATP in HLCs. The format is cell-based, human. The note with it: 1 mM HPCD, 4 days; FIG. 21. Here is the method: Hepatocyte-like cells derived from the iPSC lines were cultured in DMEM medium in the absence of glucose for 24 hours and were then cultured in the DMEM medium containing 10% FBS and high glucose for 6 hours. ATP was measured by ATP measurement Kit (TOYO INK), according to the manufacturer's protocol.
as §2

The next series concerns isolated erythrocyte. The note with it: in vitro; cited from earlier work.
Series [2] has as its system NPC model mice. Briefly: Survival of NPC model mice. The format is in vivo, mouse. The following applies: 4-week-old model mice injected once a week; FIG. 33. Here is the method:
To evaluate the effect of HPGCD treatment on NPC mice survival, 4-week-old model mice were injected with HPGCD one a week (HPGCD injection group: n=6, control (saline injection) group: n=6).

Series [3] relates to NPC-derived HLCs. In words: Cell size of HLCs. The note with it: data not shown. The format is cell-based, human. Here is the method: The cell sizes of albumin-positive cells was calculated by Developer Toolbox software of IN CELL ANALYZER 6000 (GE Healthcare).
(§3) The size of HLCs is decreased by the treatments with HPBCD and HPGCD (data not shown). Effects of various concentration of HPBCD and HPGCD in NPC-derived HLCs was observes. HLCs were cultured with HPBCD or HPGCD for 4 days, stained with filipin and analyzed with an IN CELL ANALYSER (GE Healthcare).

Series [4] deals with NPC model mice. In words: HPGCD treatment of NPC model mice (serum markers, histology, autophagy). The format is in vivo, mouse. Here is the method: Effects of HPGCD treatment on cholesterol accumulation in NPC-derived HLCs were evaluated using NPC-model mice. NPC model mice bear a spontaneous mutation of the Npc1 gene that causes a defect in lysosome to ER trafficking of cholesterol. […] The model mice show liver injury and neural functional impairment and die before 12 weeks old without proper treatment.
4-week-old NPC mice were treated with HPGCD (4000 mg/kg) once a week until 8.5 weeks of age (5 injections in total), followed by sample collection. Control was treated with saline. The experiments were conducted twice (first; n=6; second: n=4).

In series [5] the test system is p62. In words: Immunoblot of insoluble p62 in HLCs. The format is cell-based, human. The note with it: 1 mM HPCD, 4 days; FIG. 23. Here is the method: as §1, §2
The subject of series [6] is NPC-derived HLCs. The format is cell-based, human. Here is the method:
For hepatocyte-like cell (HLC) induction, the culture medium of semi-confluent human iPS cells were switched from the iPS medium to the definitive endoderm differentiation medium containing RPMI1640 supplemented with 2% B27 (Life technologies), 100 ng/m1 Activin A and 1 mM Sodium butyrate (NaB, SIGMA). The NaB concentration is changed in 0.5 mM on day 2. On day 4, the cells were harvested and re-seeded onto Matrigel-coated dishes in hepatic differentiation medium containing DMEM supplemented with 20% KSR, 1 mM glutamine, 1 mM NEAA, 0.1 mM 2-mercaptoethanol (SIGMA), 1% Dimethyl sulfoxide (DMSO, SIGMA). CXCR4 expressions were examined by FACS on day 4. On day 11, the cells were harvested and re-cultured in the hepatic maturation medium containing L15 medium (SIGMA) supplemented with 8.3% FBS, 8.3% tryptose phosphate broth (SIGMA), 10 mM hydrocortisone 21-hemisuccinate (SIGMA), 1 mM insulin (SIGMA), 2 mM glutamine, lOng/ml Hepatocyte growth factor (HGF, R & D) and 20 ng/ml Oncostatin M (OSM, R & D). On day 18, the cells were used for various experiments. For the hydroxypropyl cyclodextrin treatments, HLCs were cultured with 0.1 mM or 1 mM of the hydroxypropyl cyclodextrins for four days. For Annexin and TUNEL stainings, HLCs are cultured for four days and a week from day 18, respectively.
(§4) Alkaline phosphatase staining was performed using the Leukocyte Alkaline Phosphatase kit (SIGMA). For immunocytochemistry, cells were fixed with PBS containing 4% paraformaldehyde for 30 min at 4° C. For the molecules localized in nucleus, samples were treated with 0.2% Triton X-100 for 15 min at room temperature (RT). The cells were washed three times with PBS containing 2% FBS and then incubated overnight at 4° C. in PBS containing 2% FBS with primary antibodies. Nucleuses were stained with Propidium Iodide (PI, WAKO, Japan) and 1 mg/ml Hoechst 33258 (Invitrogen). The list of the primary and secondary antibodies is described in Table 3. For Filipin staining, samples were washed with PBS three times after the fixing and incubated with PBS containing 1.5 mg/ml glycine for 10 min at RT. The samples were then treated with PBS containing 10% FBS and 50 mg/ml Filipin (SIGMA). The data was calculated by UV absorption (360/460) and analyzed with Developer Toolbox software of IN CELL ANALYZER 6000 (GE Healthcare). The number of insoluble p62 granules were counted by IN CELL ANALYZER 6000 (GE Healthcare). To investigate glycogen accumulation, Periodic acid Schiff (PAS) staining of hepatocyte-like cells were performed by PAS staining solution (Muto Pure chemicals, Tokyo, Japan), according to the manufacturer's protocol.
The inventors therefore treated the HLCs derived from normal and NPC-iPS cell lines with a series of 2-hydroxypropyl-cyclodextrins with different cavity sizes, and observed effect of a series of hydroxypropyl-cyclodextrins. HLCs were cultured with 1 mM of the indicated hydroxypropyl-cyclodextrin for 4 days, stained with filipin and analyzed with an IN CELL ANALYSER (GE Healthcare) (FIG. 18).
as §3

In series [7] the test system is p62. In words: Count of insoluble p62 granules in HLCs (IN CELL ANALYZER). The format is cell-based, human. The note with it: 1 mM HPCD, 4 days; FIG. 24. Here is the method:
as §4, with “To investigate glycogen accumulation, Periodic acid Schiff (PAS) staining of hepatocyte-like cells were performed by PAS staining solution (Muto Pure chemicals, Tokyo, Japan), according to the manufacturer's protocol.” left out
as §2

Where [8] appears, read: 4000 mg/kg once a week from 4 to 8.5 weeks of age, FIG. 30.

The values that follow come from patent US10588921B2, “Drug for the treatment of cholesterol accumulation disorders” (NATIONAL UNIVERSITY CORPORATION KUMAMOTO UNIVERSITY, priority 2013, dated 2020).

Entries after “also recorded” stand apart in the source; their conditions may differ.

On to 2-hydroxypropyl-γ-cyclodextrin [HPGCD], for which, in the series with normal mice, the “survival after injection (acute toxicity)” value is recorded as “no mice dies”. For the same substance, the “expression level of LC3” value with LC3 is “recovered to normal levels”. For the same substance, the cholesterol dissolution activity entry in the series on cultured cells is listed as “a several tenth part or less, compared with that of HPBCD”. Besides, in the series with NPC-derived HLCs [1], the ATP level result is “recovered”. The “hemolytic activity (order)” value in the series with isolated erythrocyte is given as “HPBCD>HPACD>HPGCD”. Moreover, the NPC mouse survival entry in the series on NPC model mice [2] is on record as “significantly prolonged”. Also, the “size of HLCs” value with NPC-derived HLCs [3] is “decreased”. Moreover, in the series on NPC model mice [4] (setting [8]), the “ALT (alanine aminotransferase), serum marker for liver injury” value is “markedly and significantly reduced”; the “AST (aspartate aminotransferase), serum marker for liver injury” value is “markedly and significantly reduced”. For the same substance, the “histological analysis of livers” value in the series with NPC model mice [4] (4000 mg/kg once a week, FIG. 31) is recorded as “marked morphological improvement”. Further, the “deletion of Purkinje cells in the cerebellum” value in the series on NPC model mice [4] (4000 mg/kg once a week, FIG. 32) is reported as “rescued; also recorded: restored”. In addition, in the series with NPC model mice [4] (data not shown), the “abnormal autophagy in NPC mice” value is reported as “restored”; the “expression level of LC3 in livers and brains” value is listed as “restored to the normal level”; the “expression level of insoluble p62 in livers and brains” value is reported as “restored to the normal level”. In addition, the “amount of insoluble p62” value with p62 [5] was “reduced the amount of insoluble p62”. In the series on NPC-derived HLCs [6], the “activity on hepatocyte-like cells differentiation-induced from NPC patient-derived iPS cells” value is “equal to or more than that of HPBCD”, the “cholesterol accumulated in hepatocyte-like cells derived from NPC” value is recorded as “removed cholesterol accumulated in hepatocyte-like cells derived from NPC” and the “function of the hepatocyte-like cells” value was “recovered the function of the hepatocyte-like cells”. Moreover, in the series on NPC-derived HLCs [6] (1 mM hydroxypropyl-cyclodextrin, 4 days, FIG. 18), the “cholesterol accumulation in NPC-HLCs (filipin staining)” value was “reduced the cholesterol accumulation in NPC-HLCs to the same extent as that observed for HPBCD”. In the series on NPC-derived HLCs [6] (low concentration 100 μM, 4 days, FIG. 19), the “cholesterol accumulation in NPC-derived HLCs (filipin staining)” value is recorded as “ineffective for reducing cholesterol accumulation”. For the same substance, in the series on p62 [7], the “proportion of HLCs carrying more than 40 granules of insoluble p62 aggregation” value is given as “greatly reduced”.
